Measured values: patent US12698523B2, “Enhancement of nucleic acid polymerization by aromatic compounds” (priority 2019, dated 2026)

What was measured:
DNA polymerase = assay: Screen of PEMs for enhancement of XNTP polymerization (primer extension reaction, gel electrophoresis); assay type: biochemical; details: for DNA polymerase-mediated primer extension with XNTPs (length of extension products): FIG. 4 gel, no PEM additive: up to only around 14 XNTPs
Description: The Sequencing by Expansion (SBX) methodology developed by the inventors provides significant performance enhancements in sequence read efficiency and accuracy of Xpandomers relative to native DNA. However, initial transcription of the sequence of the natural DNA template onto the measurable Xpandomer relies on the ability of DNA polymerase to utilize XNTPs as substrates (the generalized structure of an XNTP is discussed herein with reference to FIG. 1A and FIG. 2). […] In an effort to improve the efficiency and accuracy of XNTP polymerization into Xpandomers, several PEMs were screened for the ability to enhance DNA polymerase primer extension reactions using XNTPs as substrates.
A representative primer extension reaction may include the following reagents: 2 pmol primer, 2.2 pmol 45mer oligonucleotide template, 50 pmol of each XNTP (XATP, XCTP, XGTP, and XTTP), 50 Mm Tris HCl, Ph 6.79, 200 Mm NaCl, 20% PEG, 5% NMS, 0.5 nmol polyphosphate 60.19, 0.3 Mm MnCl2, and 0.6 μg of purified recombinant DNA polymerase protein. Reactions may be run for 1 hr at 23° C. Reaction products (i.e., constrained Xpandomers) are treated to cleave the phosphoramidate bonds, thereby generating linearized Xpandomers. Reaction products may be analyzed using gel electrophoresis on 4-12% acrylamide gels to resolve and visualize Xpandomer products of different lengths. For the PEM screen described above, PEMs were typically tested in the micro to millimolar range.
Again, this PEM activity is specific for compound 2, as other unrelated aromatic compounds had no effect (lanes 2-7).

C4552 DNA polymerase = molecular target: T1, C4552 DNA polymerase (Saccharolobus solfataricus, UniProt Q97W02, A155G/A42V/D156R/D292Y/D294N/E291S/E324K/E325K/E327K/E79L/G187P/G299W/I153V/I189F/I248T/I295S/K152A/K317Q/K321Q/K56Y/K78D/L293W/M76W/N188Y/P184Q/Q82W/Q83G/R300S/S297Y/S86E/T290K/T301W/V289W/V296Q); assay: Primer extension assay with three 100mer templates derived from the HIV1, 2 and 3 genomes; assay type: biochemical, Sulfolobus solfataricus; details: 0.5 Mm PEM; HIV1, HIV2, HIV3 100mer templates; 30 minutes at 23° C.; FIG. 9
T1 construct: made in house
T1 sequence (Q97W02 other isoform, or with tags, fused parts or gaps with the stated changes): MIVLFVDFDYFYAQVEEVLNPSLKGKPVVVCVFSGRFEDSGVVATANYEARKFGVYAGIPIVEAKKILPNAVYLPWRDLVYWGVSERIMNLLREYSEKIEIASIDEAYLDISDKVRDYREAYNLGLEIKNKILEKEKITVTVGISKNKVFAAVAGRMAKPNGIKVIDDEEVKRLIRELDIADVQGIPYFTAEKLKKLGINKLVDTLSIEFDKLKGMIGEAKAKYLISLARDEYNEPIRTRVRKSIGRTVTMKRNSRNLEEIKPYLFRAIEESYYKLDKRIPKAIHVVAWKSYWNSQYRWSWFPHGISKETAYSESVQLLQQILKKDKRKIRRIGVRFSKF
Procedure: PEM activity of compounds 9-11 was tested in primer extension assays using three 100mer templates, derived from the HIV1, 2, and 3 genomes. Primer extension reactions included the following reagents: 75 Mm TrisCl, Ph 8.44, 175 Mm NH4Oac, 20% PEG8K, 5% NMS, 0.8 nmol PP-60.20, 0.6 Mm MnCl2, 2.3 μg Tth single-strand binding protein (SSB), 0.5 M or 1 M urea, 200 pmol each XNTP, 1.1 pmol template, 1 pmol oligonucleotide primer, 1.2 μg purified recombinant C4552 DNA polymerase, and 0.5 Mm PEM. 10 μL primer extension reactions were run for 30 minutes at 23° C. and reaction products were analyzed by gel electrophoresis.

[1] = molecular target: T2, C4760 DNA polymerase (a variant of DPO4, SEQ ID NO:2) (Saccharolobus solfataricus, UniProt Q97W02, A155G/A42V/D156R/D292Y/D294N/E291S/E324K/E325K/E327K/E63R/E79L/G187P/G299W/I153V/I189F/I248T/I295S/K152A/K317Q/K321Q/K56Y/K78D/L293W/M76W/N188Y/P184Q/Q82W/Q83G/R300S/S297Y/S86E/T290K/T301W/V289W/V296Q); assay: Primer extension assay with the HIV2 100mer template; assay type: biochemical, Sulfolobus solfataricus; details: HIV2-derived 100mer template
T2 construct: made in house
T2 sequence (Q97W02 other isoform, or with tags, fused parts or gaps with the stated changes): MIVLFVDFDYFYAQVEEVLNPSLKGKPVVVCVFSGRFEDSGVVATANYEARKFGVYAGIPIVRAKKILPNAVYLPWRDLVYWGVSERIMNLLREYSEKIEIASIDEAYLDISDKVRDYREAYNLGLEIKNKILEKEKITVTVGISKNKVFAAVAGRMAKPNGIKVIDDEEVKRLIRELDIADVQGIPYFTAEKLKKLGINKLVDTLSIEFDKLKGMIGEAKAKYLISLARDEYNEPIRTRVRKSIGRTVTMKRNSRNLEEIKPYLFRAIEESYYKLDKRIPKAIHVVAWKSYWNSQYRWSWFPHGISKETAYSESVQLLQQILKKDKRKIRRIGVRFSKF
Procedure: PEM activity of compound 12 was tested in primer extension assays using the HIV2 100mer template. Primer extension reactions included the following reagents: 50 Mm TrisCl, 200 Mm NH4Oac, 20% PEG8K, 5% NMS, 0.6 nmol PP-60.20, 0.6 Mm MnCl2, 2.75 μg/μl Eco single-strand binding protein (SSB), 1 M urea, 50 pmol each XNTP, 1.1 pmol template, 1 pmol oligonucleotide primer, 1.2 μg/μl purified recombinant C4760 DNA polymerase (SEQ ID NO:2), and 0.5, 1, or 1.5 Mm PEM. 10 μL primer extension reactions were run for 30 minutes at 23° C. and reaction products were analyzed by gel electrophoresis. […] Lanes 2-4 show primer extension products from reactions with a structurally related additive lacking robust PEM activity.
PEM activity of compounds 13 and 14 was tested in primer extension assays using the HIV2 100mer template. Primer extension reactions included the following reagents: 50 Mm TrisCl, 200 Mm NH4Oac, 20% PEG8K, 5% NMS, 0.6 nmol PP-60.20, 0.6 Mm MnCl2, 2.75 μg/μl Eco single-strand binding protein (SSB), 1 M urea, 50 pmol each XNTP, 1.1 pmol template, 1 pmol oligonucleotide primer, 1.2 μg/μl purified recombinant C4760 DNA polymerase (a variant of DPO4, see SEQ ID NO:2), and 0.5, 1, 1.52, or 2.5 Mm PEM. 10 μL primer extension reactions were run for 30 minutes at 23° C. and reaction products were analyzed by gel electrophoresis. A representative gel showing primer extension products is presented in FIG. 11 (the position of the full length HIV2 100mer is indicated by the arrow).
PEM activity of compounds 16, 17, and 18 and combinations thereof were tested in primer extension assays using the HIV2-derived 100mer template. Primer extension reactions included the following reagents: 50 Mm TrisCl, 200 Mm NH4Oac, 20% or 25% PEG8K, 5% NMS, 0.6 nmol PP-60.20, 0.6 Mm MnCl2, 2 μg Kod single-strand binding protein (SSB), 1 M urea, 50 pmol each XNTP, 1 pmol template, 1 pmol oligonucleotide primer, 1.2 μg purified recombinant C4760 DNA polymerase (a variant of DPO4, see SEQ ID NO:2), and 0.5-2 Mm PEM. 10 μL primer extension reactions were run for 30 minutes at 37° C. and reaction products were analyzed by gel electrophoresis. A representative gel showing primer extension products is presented in FIG. 13 (the position of a 100mer product is indicated by the arrow).

[2] = molecular target: T2, C4760 DNA polymerase (a variant of DPO4, SEQ ID NO:2); assay: Primer extension on a 45mer RNA template derived from the HIV2 genome sequence; assay type: biochemical, Sulfolobus solfataricus; details: 2 Mm PEM; 45mer RNA template from HIV2 genome; 30 minutes at 37° C.
Procedure: To begin to investigate the potential of PEMs to enhance diverse polymerase reactions, the ability of PEMS to enable DNA polymerase to utilize RNA as a template was tested. An initial screen of several compounds set forth in Table I was conducted using a 45mer RNA template derived from the HIV2 genome sequence. Primer extension reactions included the following reagents: 50 Mm TrisCl, 200 Mm NH4Oac, 20% PEG8K, 5% NMS, 0.6 nmol PP-60.20, 0.6 Mm MnCl2, 2 μg Kod single-strand binding protein (SSB), 1 M urea, 50 pmol each XNTP, 0.5 pmol template, 0.5 pmol oligonucleotide primer, 1.2 μg purified recombinant C4760 DNA polymerase (a variant of DPO4, see SEQ ID NO:2), and 2 Mm PEM. 10 μL primer extension reactions were run for 30 minutes at 37° C. and reaction products were analyzed by gel electrophoresis.

SMILES: O=C(O)c1ccc(-n2cc(-c3cncc(-c4cn(-c5ccc(C(=O)O)c(O)c5)nn4)c3)nn2)cc1O [Compound 2, 4,4′-(pyridine-3,5-diylbis(1H-1,2,3-triazole-4,1-diyl))bis(2-hydroxybenzoic acid)]
- primer extension activity with XNTPs (DNA polymerase; FIG. 5 gel, compound at various concentrations (lanes 8-10)): significantly enhances primer extension activity

SMILES: O=C(O)c1ccc(-n2cc(-c3cccc(-c4cn(-c5ccc(C(=O)O)c(O)c5)nn4)c3)nn2)cc1O [Compound 3, 4,4′-(1,3-phenylenebis(1H-1,2,3-triazole-4,1-diyl))bis(2-hydroxybenzoic acid)]
- DNA polymerase-mediated primer extension with XNTPs (length of extension products) (DNA polymerase): considerably longer extension products

SMILES: O=C(O)c1ccc(-n2cc(-c3ccc4[nH]c5ccc(-c6cn(-c7ccc(C(=O)O)c(O)c7)nn6)cc5c4c3)nn2)cc1O [Compound 4, 4,4′-((9H-carbazole-3,6-diyl)bis(1H-1,2,3-triazole-4,1-diyl))bis(2-hydroxybenzoic acid)]
- DNA polymerase-mediated primer extension with XNTPs (length of extension products) (DNA polymerase): considerably longer extension products

SMILES: COc1cc(-c2cn(-c3ccc(C(=O)O)c(O)c3)nn2)nc(-c2cn(-c3ccc(C(=O)O)c(O)c3)nn2)c1 [Compound 9, 4,4′-((4-methoxypyridine-2,6-diyl)bis(1H-1,2,3-triazole-4,1-diyl))bis(2-hydroxybenzoic acid)]
- polymerization of XNTPs into full length Xpandomer copies (PEM activity) (C4552 DNA polymerase): enable XNTP polymerization at least as efficiently as compound 1

SMILES: O=C(O)c1ccc(-n2cc(-c3cc([N+](=O)[O-])cc(-c4cn(-c5ccc(C(=O)O)c(O)c5)nn4)n3)nn2)cc1O [Compound 11, 4,4′-((4-nitropyridine-2,6-diyl)bis(1H-1,2,3-triazole-4,1-diyl))bis(2-hydroxybenzoic acid)]
- polymerization of XNTPs into full length Xpandomer copies (PEM activity) (C4552 DNA polymerase): enable XNTP polymerization at least as efficiently as compound 1

SMILES: CCNC(=O)c1cc(-c2cn(-c3ccc(C(=O)O)c(O)c3)nn2)nc(-c2cn(-c3ccc(C(=O)O)c(O)c3)nn2)c1 [Compound 17, 4,4′-((4-(ethylcarbamoyl)pyridine-2,6-diyl)bis(1H-1,2,3-triazole-4,1-diyl))bis(2-hydroxybenzoic acid)]
- polymerization of XNTPs into lengthy Xpandomer copies (PEM activity) ([1]; 2 Mm compound 16, 0.5, 1, 2, and 3 Mm compound 17, Kod SSB, 30 minutes at 37° C., FIG. 13): enable polymerization of XNTPs into lengthy Xpandomer copies of the 100mer template in a manner comparable to that of compound 14
- polymerization of XNTPs into lengthy Xpandomer copies, combination of PEMs ([1]; combination of 2 Mm compound 14 and 0.1 Mm or 0.3 Mm compound 17, FIG. 13 lanes 7-9): also enabled polymerization of XNTPs into lengthy Xpandomer copies of the 100mer template
- PEM activity on an RNA template [2]: display PEM activity on an RNA template

SMILES: CNC(=O)c1cc(-c2cn(-c3ccc(C(=O)O)c(O)c3)nn2)nc(-c2cn(-c3ccc(C(=O)O)c(O)c3)nn2)c1 [Compound 18, 4,4′-((4-(methylcarbamoyl)pyridine-2,6-diyl)bis(1H-1,2,3-triazole-4,1-diyl))bis(2-hydroxybenzoic acid)]
- polymerization of XNTPs into full length copies, combination of PEMs ([1]; combination of 2 Mm compound 16 and 0.1 Mm or 0.3 Mm compound 18, FIG. 13 lanes 10-12): enable polymerization of XNTPS into full length copies of the 100mer template
